Test results: patent publication US7361681B2, “Method of treating amytrophic lateral sclerosis using melatonin” (SYGNIS Bioscience GmbH & Co. KG, priority 2003, dated 2008)
“And” between values parts separate entries of the source, which are not always exact repeats. Equal entries are not always repeated.

Experiments:
ALS patients = experiment: pilot program of chronic high-dose melatonin in ALS patients; assay type: in vivo, human
Text: Three ALS patients with an estimated onset of disease 2-4 yr previously, were included in a pilot program in Göttingen, set up to explore potential effects and side-effects of chronic high-dose melatonin in this condition. Intraindividual follow-up (upon entering the study, and after 1, 2, 6, 9 and 13 months of treatment thus far) included physical examination/clinical rating scales (ALS functional rating scale, ALSFRS), pulmonary function test, EMG-NCV, routine laboratory parameters, psychological rating scales, as well as magnetic resonance imaging and MR spectroscopy. Patients received 30-60 mg of melatonin as an oral slow release formulation in the late evening. In addition, they continued their “regular medication” in the morning and at noon (RIUZOLE® 50-100 mg, vitamins C and E, creatine, […]).

[1] = cited from earlier work
[2] = 30-60 mg melatonin oral slow release in the late evening, up to 13 months

Protocol for SODG93A-transgenic mice: Rotarod failure is defined to start when mice are no longer able to stay in the rotarod for more than 300 sec (=early disease state).
Shown are days after score 1 (abnormal hindlimb reflex or tremor in at least one extremity or asymmetrical gait) to score 4 (endpoint criteria/death).
Melatonin was continuously applied via drinking water (0.5 mg/ml of water containing 1% of ethanol to enable a saturated solution of melatonin) starting on day 28 of life and continued until death. The vehicle control received water containing 1% of ethanol.

COc1ccc2[nH]cc(CCNC(C)=O)c2c1 [melatonin, N-acetyl-5-methoxytryptamine]
survival and course of disease (rotarod performance, progression of paresis, weight loss) (SODG93A-transgenic mice; 0.5 mg/ml in drinking water with 1% ethanol, from day 28 of life until death): significant improvement
adverse effects of systemic melatonin (SODG93A-transgenic mice; 0.5 mg/ml in drinking water, application of several months): No adverse effects
days from rotarod failure (no longer able to stay more than 300 sec) to death, versus vehicle (SODG93A-transgenic mice; SODG93A mice, n=9-12 per group, FIG. 1): significantly more
days from clinical score 1 to score 4 (endpoint criteria/death), versus vehicle (SODG93A-transgenic mice; SODG93A mice, n=9-12 per group, FIG. 2): significantly more
side effects reported or detected (ALS patients; [2]): No side effects
signs of fatigue (ALS patients; [2]): no signs of fatigue
tolerability over the entire observation period (ALS patients; 30-60 mg melatonin oral slow release in the late evening, up to 13 months, plus regular medication): well tolerated
clinical laboratory parameters (blood cell count, electrolytes, liver enzymes, creatinine, CRP etc.) during melatonin treatment (ALS patients; 30-60 mg melatonin oral slow release nightly): did not show alterations
clinical rating scale (ALSFRS) one year later (ALS patients; three patients, 30-60 mg melatonin oral slow release nightly): 22 and 11 and 20
clinical rating scale (ALSFRS) at the start of the trial (ALS patients; three patients, baseline): 34 and 25 and 31
crossing of the blood-brain barrier ([1]; in vivo): readily crosses
duration of high plasma levels ([1]; slow release preparations): about 6 hr
